In patent publication US11643655B2, “Methods for intracellular delivery and enhanced gene targeting” (CITY OF HOPE, priority 2016, dated 2023):
Several values for one entry are separate records, joined by “and”; a condition that tells them apart may be missing. Equal entries are not always repeated. Entries after “also recorded” stand apart in the source; their conditions may differ. Where two headings read alike, the source gives them in different places. l = locked nucleic acid (LNA); d = 2'-deoxy (DNA)

Columns and labels:
HeLa EGFP-654 cells [1] = assay: SSO-654-mediated EGFP expression (splice switching) in HeLa EGFP-654 cells; flow cytometry, Western blot, microscopy; type: cell-based, human
[2] = cited from earlier work
PKR = PKR expression by real-time PCR (cellular stress response) in HeLa-GFP-654 cells; type: cell-based, human
β-catenin = type: cell-based, human
[3] = test system: HeLa-EGFP-654 and LNCaP cells; type: cell-based, human
HeLa EGFP-654 cells [4] = assay: Cell growth and proliferation, SRB staining; conditions: two days
[5] = oligonucleotides delivered by gymnosis; cited from earlier work
[6] = cited from earlier work; remark: listed apart in the source
androgen receptor (AR) = assay: ASO silencing of AR protein expression, Western blot; type: cell-based, human; conditions: LNCaP cells; for reduction in AR protein expression: three days
Protocol: Cells were harvested with trypsin digestion and washed once with PBS. Cell pellets were lysed in cold RIPA buffer containing protease inhibitors. Cellular RIPA lysates were sonicated for 2 seconds and then rested on ice for 5 min. Cell debris was removed by centrifugation at 12,000×g for 10 min at 4° C. Protein concentrations were determined using the Pierces BCA Protein Assay kit (Thermo Fisher Scientific, Waltham, Mass.). Aliquots of cell extracts containing 30-40 μg of protein were resolved by SDS-PAGE gel electrophoresis, and then transferred to PVDF membranes. After treatment with the appropriate primary and secondary antibodies, enhanced chemiluminescence was performed. Protein signals on the blot were quantified with the Image J program and protein expression was normalized to control=100%.
Protein expression was quantified with ImageJ.

AR mRNA = AR mRNA RT-PCR in LNCaP cells; type: cell-based, human; conditions: 1 μM AR-ASO with 5 mM NH4^+, 24 hr, p<0.01
Protocol: Values were normalized to GAPDH mRNA expression and expressed as the mean±SD, n=3. **p<0.01, Students t-test.
RNA was extracted from cells using RNA-STAT 60 (AMS Biotechnology, Abingdon, UK) as recommended by the manufacturer. First-strand cDNA was synthesized with the Super-Script® III First-Strand Synthesis System Kit (Invitrogen, Carlsbad, Calif.). PCR was performed with Power SYBR GREEN PCR Master Mix (Thermo Fisher Scientific, Waltham, Mass.).

BCL-2 = type: cell-based, human
CDR1 = type: cell-based, human
Malat-1 = type: cell-based, human
HDAC-2 mRNA = type: cell-based, human
eGFP mRNA = type: cell-based, human
HeLa EGFP-654 cells [7] = test system: HeLa EGFP-654 cells

Nc1c(Br)cc(Br)cc1CN[C@H]1CC[C@H](O)CC1 [Ambroxol]
SSO-654 activity (EGFP MFI) (HeLa EGFP-654 cells [1]): significantly enhanced SSO-654 activity
pKa [2]: 9.1

OO [H2O2, hydrogen peroxide]
frequency of splice switching (correctly spliced eGFP expression) (HeLa EGFP-654 cells [1]): increased frequency of splice switching
oligonucleotide (SSO) function, flow cytometry (HeLa EGFP-654 cells [1]): able to increase oligonucleotide function
PKR activation / expression (PKR; oligonucleotide (SSO) combined with the treatment): increasing PKR expression

NC1CCCCC1 [cyclohexylamine]
SSO-654 activity (EGFP MFI) (HeLa EGFP-654 cells [1]): significantly enhanced SSO-654 activity

Cl.N [NH4^+, Ammonium chloride]
activity of lipofected SSO-654 (EGFP MFI) (HeLa EGFP-654 cells [1]): did not enhance the activity of the SSO-654
increase of SSO-654-induced EGFP protein expression (HeLa EGFP-654 cells [1]): more than two-fold
increase of SSO-654 function and EGFP expression compared to SSO-654 alone (HeLa EGFP-654 cells [1]): a minimum of five fold
increase of percentage of EGFP positive cells and EGFP protein expression compared to SSO-654 alone (HeLa EGFP-654 cells [1]): nearly seven-fold
increase of percentage of EGFP-positive cells, NH4^+/SSO-654 vs SSO-654 (HeLa EGFP-654 cells [1]): nearly four-fold
oligonucleotide (SSO) function, flow cytometry (HeLa EGFP-654 cells [1]): able to increase oligonucleotide function
upregulation of SSO-654-mediated EGFP expression (HeLa EGFP-654 cells [1]): three- to five-fold
increase of β-Cat-ASO efficacy (β-catenin): approximately two fold
cellular uptake of Cy5-ASO (Cy5 MFI) [3]: did not significantly affect the cellular uptake
PKR activation / expression (PKR): does not seem to activate the stress gene response
effect on cell growth (HeLa EGFP-654 cells [4]; NH4^+ alone 1 mM-2 mM): did not affect the growth
inhibition of cell growth (HeLa EGFP-654 cells [4]; NH4^+ alone 5 mM, normalized to non-treated controls): about 15%

CCC(=O)N1CC(=O)Nc2ccc(Br)cc2C1c1ccccc1 (stereo not drawn) [Retro-1]
optimal concentration for enhancing SSO and ASO efficacy [5]: 50 to 100 µM
water solubility [6]: poorly water-soluble

CC(=O)O.N [ammonium acetate]
effect on SSO-654-mediated EGFP expression compared with NH4^+ (HeLa EGFP-654 cells [1]): comparable effects

AR-ASO: Phosphorothioate LNA gapmer ASO targeting Androgen Receptor, 5′-ACCaagtttcttcAGC-3′ (SEQ ID NO: 6) (antisense ACCAAGTTTCTTCAGC; sugars from the 5' end l3 d10 l3, all phosphorothioate, methylation of C not given here)
inhibition of NH4^+ and SSO-654-mediated EGFP expression by a second ASO (HeLa EGFP-654 cells [1]): only slight or no inhibition
AR reduction, dose response (androgen receptor (AR); 0.25 μM AR-ASO with 5 mM NH4^+ vs 1 μM AR-ASO alone): greater AR reduction than 1 μM AR-ASO alone
reduction in AR protein expression (androgen receptor (AR); 1 μM AR-ASO alone): 40%
reduction in AR protein expression (androgen receptor (AR); 1 μM AR-ASO with 5 mM NH4^+): 80%
reduction of AR mRNA expression compared with the AR-ASO alone (AR mRNA): about 40%

BCL2-ASO: Phosphorothioate LNA gapmer ASO targeting BCL-2, 5′-^mCTcccagcgtgcg^mC^mCa-3′ (SEQ ID NO: 3)
effect of BCL2-ASO on SSO-654 activity and EGFP expression (HeLa EGFP-654 cells [1]): diminished
effect of BCL2-ASO on SSO-654 function (HeLa EGFP-654 cells [1]): did not affect SSO-654 function
BCL2 silencing (BCL-2 protein expression) (BCL-2): 65%
BCL-2 protein expression (BCL-2): nearly completely depleted BCL-2 protein expression; also recorded: Some silencing of the BCL-2 protein expression
depletion of BCL-2 protein expression (BCL-2): 98% and 70%

O=C1Nc2cc(Br)ccc2/C1=C1/Nc2ccccc2/C1=N\O [6BIO]
frequency of splice switching (correctly spliced eGFP expression) (HeLa EGFP-654 cells [1]): increased frequency of splice switching

β-Cat-ASO: Phosphorothioate LNA gapmer ASO targeting β-catenin, 5′-CCAtcttgtgatcCAT-3′ (SEQ ID NO: 5) (antisense CCATCTTGTGATCCAT; sugars from the 5' end l3 d10 l3, all phosphorothioate, methylation of C not given here)
β-catenin gene expression (β-catenin): nearly eliminated β-catenin gene expression

arsenic trioxide [As III]
frequency of splice switching (correctly spliced eGFP expression) (HeLa EGFP-654 cells [1]): increased frequency of splice switching
upregulation of SSO-654-mediated EGFP expression (HeLa EGFP-654 cells [1]): three- to five-fold
BCL2-ASO activity (BCL-2 protein) (BCL-2): did not significantly increase
β-Cat-ASO activity (β-catenin protein) (β-catenin): did not significantly increase
oligonucleotide uptake (Cy5-ON by gymnosis) [3]: No significant changes
PKR activation / expression (PKR): PKR is activated
CDR-1 gene expression (CDR1): silenced as a function of increasing As III concentrations
Malat-1 gene expression (Malat-1): silenced as a function of increasing As III concentrations
expression of HDAC-2 mRNA (HDAC-2 mRNA): did not significantly change
cytoplasmic oligonucleotide function (eGFP mRNA silencing by ON-eGFP) (eGFP mRNA): some loss of oligonucleotide function
cell viability (HeLa EGFP-654 cells [7]): No significant changes

CCCCCCCC/C=C\CCCCCCCC(=O)O [oleic acid]
SSO-654 activity (EGFP MFI) (HeLa EGFP-654 cells [1]): significantly enhanced SSO-654 activity
